Where a SMILES comes first, the peptide text is derived from it. The star is where a group is joined. Palmitoyl = CCCCCCCCCCCCCCCC(=O)*
Assay: Solubilization of each lyophilized lipopeptide in pure acetic acid
Format: physicochemical
Conditions: pure acetic acid added to obtain 12.5 mg net/ml; before sonication
Procedure: Each lipopeptide is then solubilized by adding pure acetic acid to obtain a concentration of 12.5 mg net/ml. […] If the aggregates are not dissociated, the sonication is continued, separating each period of sonication (30 s) by 30 s gaps of no sonication, during which the bottles are shaken manually. At the end of the sonication step, the suspensions should be homogeneous (but will not be clear). Each lipopeptide is then diluted by adding water for injectable preparation. If the solution obtained is not totally clear, steps of heating in a water bath (at 40° C.±2° C.) and sonication (1 min maximum) may be carried out, separating them by 30 s gaps of no sonication. The final preparation is obtained by mixing the lipopeptides in equal weight amounts, adding them in the following order (the most hydrophilic to the most hydrophobic lipopeptides):

## CCCCCCCCCCCCCCCC(=O)NCCCC[C@H](NC(=O)[C@H](CC(C)C)NC(=O)[C@H](CCCCN)NC(=O)[C@H](Cc1ccc(O)cc1)NC(=O)[C@H](CC(C)C)NC(=O)[C@H](Cc1c[nH]c2ccccc12)NC(=O)CNC(=O)[C@H](Cc1ccccc1)NC(=O)[C@@H](NC(=O)[C@H](CC(C)C)NC(=O)[C@@H]1CCCN1C(=O)[C@H](Cc1ccc(O)cc1)NC(=O)[C@H](CCCNC(=N)N)NC(=O)[C@@H](NC(=O)CNC(=O)[C@@H]1CCCN1C(=O)CNC(=O)[C@@H]1CCCN1C(=O)[C@@H](NC(=O)[C@H](Cc1ccc(O)cc1)NC(=O)[C@H](CC(N)=O)NC(=O)[C@H](CCC(N)=O)NC(=O)[C@H](Cc1c[nH]c2ccccc12)NC(=O)[C@H](CC(=O)O)NC(=O)[C@@H]1CCCN1C(=O)[C@H](Cc1ccccc1)NC(=O)[C@H](Cc1ccc(O)cc1)NC(=O)CNC(=O)[C@H](CCC(N)=O)NC(=O)[C@@H](NC(=O)[C@@H](N)Cc1c[nH]cn1)[C@@H](C)O)[C@@H](C)O)C(C)C)[C@@H](C)O)C(N)=O [Nef 116] (H-HTQGYFPDWQNYTPGPGVRYPLTFGWLYKLK(Palmitoyl)-NH2; N-terminus assumed)
  solubility in pure acetic acid: soluble

Source: US20040058861A1, “Use of lipopeptides in immunotherapy of HIV+ individuals” (priority 2000, published 2004)
